# Assay results taken from patent US20070286822A1, “Compounds for the Treatment of Periodontal Disease” (ANACOR PHARMACEUTICALS INC., priority 2006, published 2007).
row,Structure (SMILES),melting point [°C]
1,"Fc1ccc2c(c1)COB2c1ccccc1 [9b, 1,3-Dihydro-5-fluoro-1-phenyl-2,1-benzoxaborole]",90 to 99
2,"Fc1ccc(B2OCc3ccccc32)cc1 [9e, 1,3-Dihydro-1-(4-fluorophenyl)-2,1-benzoxaborole]",53 to 55
3,"Fc1ccc2c(c1)COB2c1cccc(Cl)c1 [9f, 1-(3-Chlorophenyl)-1,3-dihydro-5-fluoro-2,1-benzoxaborole]",112 to 114
4,"Fc1cccc(B2OCc3cc(F)ccc32)c1 [9g, 1,3-Dihydro-5-fluoro-1-(3-fluorophenyl)-2,1-benzoxaborole]",80 to 82
5,"Fc1ccc(B2OCc3cc(F)ccc32)cc1 [9h, 1,3-Dihydro-5-fluoro-1-(4-fluorophenyl)-2,1-benzoxaborole]",75 to 77
6,"Cc1cccc(B2OCc3cc(F)ccc32)c1 [9i, 1,3-Dihydro-5-fluoro-1-(3-methylphenyl)-2,1-benzoxaborole]",48 to 49
7,"Cc1ccc(B2OCc3cc(F)ccc32)cc1 [9j, 1,3-Dihydro-5-fluoro-1-(4-methylphenyl)-2,1-benzoxaborole]",48 to 49
8,"C(=Cc1ccccc1)B1OCc2ccccc21 [10a, 1,3-Dihydro-1-styryl-2,1-benzoxaborole]",57 to 59
9,"Fc1ccc2c(c1)COB2C=Cc1ccccc1 [10b, 1,3-Dihydro-5-fluoro-1-styryl-2,1-benzoxaborole]",84 to 86
10,"COc1ccc2c(c1)COB2O [C7, 5-methoxybenzo[c][1,2]oxaborol-1(3H)-ol]",102 to 104
11,"Cc1ccc2c(c1)COB2O [C8, 5-methylbenzo[c][1,2]oxaborol-1(3H)-ol]",124 to 128
12,"OB1OCc2ccc3ccccc3c21 [C11, naphtho[1,2-c][1,2]oxaborol-1(3H)-ol]",139 to 143
13,"OB1OCc2ccc(F)cc21 [C13, 6-fluorobenzo[c][1,2]oxaborol-1(3H)-ol]",110 to 117.5
14,"N#Cc1cccc(Oc2ccc3c(c2)B(O)OC3)c1 [C19, 3-(1-hydroxy-1,3-dihydrobenzo[c][1,2]oxaborol-6-yloxy)benzonitrile]",146 to 149
15,"OB1OCc2ccc(Oc3ccc(Cl)cc3)cc21 [C20, 6-(4-chlorophenoxy)benzo[c][1,2]oxaborol-1(3H)-ol]",119 to 130
16,"OB1OCc2ccc(Oc3ccccc3)cc21 [C21, 6-phenoxybenzo[c][1,2]oxaborol-1(3H)-ol]",95 to 99
17,"OB1OCc2ccc(Oc3ccc(OC(F)(F)F)cc3)cc21 [C29, 6-(4-(trifluoromethoxy)phenoxy)benzo[c][1,2]oxaborol-1(3H)-ol]",97 to 101
18,"CN(c1ccc2c(c1)COB2O)S(=O)(=O)c1ccccc1 [C30, N-(1-hydroxy-1,3-dihydrobenzo[c][1,2]oxaborol-5-yl)-N-methylbenzenesulfonamide]",85 to 95
19,"COc1ccc(Oc2ccc3c(c2)B(O)OC3)cc1 [C31, 6-(4-methoxyphenoxy)benzo[c][1,2]oxaborol-1(3H)-ol]",126 to 129

row,Structure (SMILES),melting point [°C]
1,"COc1ccc(Sc2ccc3c(c2)B(O)OC3)cc1 [C32, 6-(4-methoxyphenylthio)benzo[c][1,2]oxaborol-1(3H)-ol]",95 to 100
2,"COc1ccc(S(=O)(=O)c2ccc3c(c2)B(O)OC3)cc1 [C33, 6-(4-methoxyphenylsulfonyl)benzo[c][1,2]oxaborol-1(3H)-ol]",180 to 192
3,"CCOC(=O)COc1ccc2c(c1)COB2O [C41, Ethyl 2-(1-hydroxy-1,3-dihydrobenzo[c][1,2]oxaborol-5-yloxy)acetate]",134 to 137
4,"O=C(O)COc1ccc2c(c1)COB2O [C42, 2-(1-hydroxy-1,3-dihydrobenzo[c][1,2]oxaborol-5-yloxy)acetic acid]",163 to 166
5,"OB1OCc2ccc(Sc3cccs3)cc21 [C43, 6-(thiophen-2-ylthio)benzo[c][1,2]oxaborol-1(3H)-ol]",99 to 104
6,"OB1OCc2ccc(Sc3ccc(F)cc3)cc21 [C44, 6-(4-fluorophenylthio)benzo[c][1,2]oxaborol-1(3H)-ol]",135 to 138
7,"CCCCC(=O)c1cccc(COc2ccc3c(c2)COB3O)c1 [C45, 1-(3-((1-hydroxy-1,3-dihydrobenzo[c][1,2]oxaborol-5-yloxy)methyl)phenyl)pentan-1-one]",96 to 98
8,"O=C(COc1ccc2c(c1)COB2O)N1CCCCC1 [C46, 2-(1-hydroxy-1,3-dihydrobenzo[c][1,2]oxaborol-5-yloxy)-1-(pieridin-1-yl)ethanone]",158 to 163
9,"O=C(COc1ccc2c(c1)COB2O)N1CCN(c2ncccn2)CC1 [C47, 2-(1-hydroxy-1,3-dihydrobenzo[c][1,2]oxaborol-5-yloxy)-1-(4-(pyrimidin-2-yl)piperazin-1-yl)ethanone]",190 to 195
10,"OB1OCc2ccc(N3CCN(c4ccccn4)CC3)cc21 [C48, 6-(4-(pyridin-2-yl)piperazin-1-yl)benzo[c][1,2]oxaborol-1(3H)-ol]",135 to 138
11,"CN(C)c1ccc2c(c1)B(O)OC2 [C51, 6-(dimethylamino)benzo[c][1,2]oxaborol-1(3H)-ol]",120 to 123
12,"O=C(Nc1ccc2c(c1)B(O)OC2)c1ccccc1 [C52, N-(1-hydroxy-1,3-dihydrobenzo[c][1,2]oxaborol-6-yl)benzamide]",186 to 193
13,"OB1OCc2ccc(N3CCN(c4ccccc4)CC3)cc21 [C53, 6-(4-phenylpiperazin-1-yl)benzo[c][1,2]oxaborol-1(3H)-ol]",159 to 161
14,"OB1OCc2ccc(-n3ccc4ccccc43)cc21 [C55, 6-(1H-indol-1-yl)benzo[c][1,2]oxaborol-1(3H)-ol]",135 to 140
15,"OB1OCc2ccc(N3CCOCC3)cc21 [C56, 6-morpholinobenzo[c][1,2]oxaborol-1(3H)-ol]",128 to 132
16,"O=[N+]([O-])c1cc2c(cc1F)COB2O [C58, 5-fluoro-6-nitrobenzo[c][1,2]oxaborol-1(3H)-ol]",162 to 167
17,OCc1cc2c(cc1Br)COB2O [C59],> 257
18,"OB1OCc2cc3c(cc21)COB3O [C60, 3,7-dihydro-1,5-dihydroxy-1H,3H-Benzo[1,2-c:4,5-c′]bis[1,2]oxaborole]",> 250
19,"O=S(=O)(Nc1ccc2c(c1)B(O)OC2)c1ccccc1 [C62, N-(1-hydroxy-1,3-dihydrobenzo[c][1,2]oxaborol-6-yl)benzenesulfonamide]",175 to 184

row,Structure (SMILES),melting point [°C]
1,"CC(=O)Nc1ccc2c(c1)B(O)OC2 [C63, N-(1-hydroxy-1,3-dihydrobenzo[c][1,2]oxaborol-6-yl)acetamide]",176 to 185
2,"OCc1cccc2c1B(O)OC2 [C64, 7-(hydroxymethyl)benzo[c][1,2]oxaborol-1(3H)-ol]",241 to 250
3,"Cc1cccc2c1B(O)OC2 [C65, 7-methylbenzo[c][1,2]oxaborol-1(3H)-ol]",107 to 111
4,"OB1OCc2ccc(-n3cc(Sc4ccccc4)c4ccccc43)cc21 [C66, 6-(3-(phenylthio)-1H-indol-1-yl)benzo[c][1,2]oxaborol-1(3H)-ol]",159 to 163
5,"N#CCCSc1cn(-c2ccc3c(c2)B(O)OC3)c2ccccc12 [C67, 3-(1-(1-hydroxy-1,3-dihydrobenzo[c][1,2]oxaborol-6-yl)-1H-indol-3-ylthio)propanenitrile]",135 to 141
6,"COc1ccc2c(ccn2-c2ccc3c(c2)B(O)OC3)c1 [C68, 6-(5-methoxy-1H-indol-1-yl)benzo[c][1,2]oxaborol-1(3H)-ol]",120 to 124
7,"OB1OCc2cc3c(cc21)OCO3 [C69, 5,6-methylenedioxybenzo[c][1,2]oxaborol-1(3H)-ol]",185 to 189
8,"Nc1cc2c(cc1F)COB2O [C70, 6-amino-5-fluorobenzo[c][1,2]oxaborol-1(3H)-ol]",142 to 145
9,"OB1OCc2cc(F)c(NCc3ccccc3)cc21 [C71, 6-(benzylamino)-5-fluorobenzo[c][1,2]oxaborol-1(3H)-ol]",159 to 164
10,"COc1ccc2c(c1)c(Sc1ccccc1)cn2-c1ccc2c(c1)B(O)OC2 [C72, 6-(5-methoxy-3-(phenylthio)-1H-indol-1-yl)benzo[c][1,2]oxaborol-1(3H)-ol]",135 to 141
11,"COc1ccc2c(c1)c(SCCC#N)cn2-c1ccc2c(c1)B(O)OC2 [C73, 3-(1-(1-hydroxy-1,3-dihydrobenzo[c][1,2]oxaborol-6-yl)-5-methoxy-1H-indol-3-ylthio)propanenitrile]",149 to 154
12,"N#Cc1ccc(Oc2cccc3c2B(O)OC3)cc1 [C74, 4-(1-hydroxy-1,3-dihydrobenzo[c][1,2]oxaborol-7-yloxy)benzonitrile]",148 to 153
13,"OB1OCc2ccc(-n3ccc4cc(Cl)ccc43)cc21 [C75, 6-(5-chloro-1H-indol-1-yl)benzo[c][1,2]oxaborol-1(3H)-ol]",149 to 154
14,"N#CCCSc1cn(-c2ccc3c(c2)B(O)OC3)c2ccc(Cl)cc12 [C76, 3-(5-chloro-1-(1-hydroxy-1,3-dihydrobenzo[c][1,2]oxaborol-6-yl)-1H-indol-3-ylthio)propanenitrile]",> 225
15,"OB1OCc2ccc(NCc3ccccc3)cc21 [C77, 6-(benzylamino)benzo[c][1,2]oxaborol-1(3H)-ol]",126 to 133
16,"OB1OCc2ccc(N(Cc3ccccc3)Cc3ccccc3)cc21 [C78, 6-(dibenzylamino)benzo[c][1,2]oxaborol-1(3H)-ol]",115 to 123
17,"OB1OCc2ccc(-n3cc(Sc4ccccc4)c4cc(Cl)ccc43)cc21 [C80, 6-(5-chloro-3-(phenylthio)-1H-indol-1-yl)benzo[c][1,2]oxaborol-1(3H)-ol]",145 to 151
18,"OB1OCc2cccc(F)c21 [C86, 7-fluorobenzo[c][1,2]oxaborol-1(3H)-ol]",120 to 124
19,"OB1OCc2ccc(Oc3ccc(C(F)(F)F)cc3)cc21 [C87, 6-(4-(trifluoromethyl)phenoxy)benzo[c][1,2]oxaborol-1(3H)-ol]",98 to 105
